Patent publication US20160345582A1, “HERBICIDE COMPOSITIONS FOR WEED CONTROL” (Valent U.S.A., Corporation, priority 2015, published 2016)

Assays:
Fall Panicum = assay: Field test 2013 (Example 2), post emergence weed control in corn; type: in vivo; conditions: Study 3; 30 DAT; mesotrione 105, pyroxasulfone 90 g ai/ha; applied at V5 corn stage
Waterhemp = assay: as above; type: in vivo, Amaranthus tuberculatus; conditions: 30 DAT, applied at V5 corn stage
Ivyleaf Morningglory = assay: Field test 2011 (Example 1), post emergence weed control in corn; type: in vivo, Ipomoea hederacea; conditions: Study 1; 30 DAT; topramezone 18.4, pyroxasulfone 90 g ai/ha; applied at V5 corn stage, weeds 4 to 10 inches
Experimental: (§1) In 2011, two field tests were conducted using similar protocols. Both studies were completed in Indiana, United States. Weeds were 4 to 10 inches in height at time of application. Untreated checks were included in the trial, however pyroxasulfone alone is not effective for post emergence weed control and was therefore not included as a standalone treatment. Roundup Ready corn (Zea maize) was used in the test as the crop plant utilizing a natural population of weeds. All of the treatments contained non-ionic surfactant at 0.25% v/v and were applied at the V5 corn growth stage. Applications were made utilizing a hand boom sprayer with application area for each treatment equating to 10 feet by 200 feet.
(§2) Topramezone was administered at 18.4 grams/hectare. Pyroxasulfone was administered at 90 grams/hectare.
(§3) Thirty days after treatment (“DAT”) readings were taken to determine the survival of Ivyleaf Morningglory, Yellow Nutsedge, Velvetleaf and Annual Grass. Survival ratings were taken by counting the number of alive and dead plants at the time of the reading. All data was analyzed using Bartlett's test and with p value of […] for determining significance of the results. The Effect of Topamezone and Pyroxasulfone on Weeds (% Control).”

Giant Ragweed = assay: Field test 2013 (Example 2), post emergence weed control in corn; type: in vivo, Ambrosia trifida; conditions: Study 7; 30 DAT; topramezone 18.4, pyroxasulfone 90 g ai/ha; applied at V5 corn stage
Yellow Nutsedge [1] = assay: Field test 2011 (Example 1), post emergence weed control in corn; type: in vivo, Cyperus esculentus; conditions: Study 1; 30 DAT; topramezone 18.4, pyroxasulfone 90 g ai/ha; applied at V5 corn stage, weeds 4 to 10 inches
Experimental: as §1, §2, §3

Broadleaf signalgrass = assay: Field test 2013 (Example 2), post emergence weed control in corn; type: in vivo, Brachiaria platyhylla; conditions: Study 7; 30 DAT; topramezone 18.4, pyroxasulfone 90 g ai/ha; applied at V5 corn stage
Foxtail = assay: as above; type: in vivo, Setaria species; conditions: Study 6; 30 DAT; topramezone 18.4, pyroxasulfone 90 g ai/ha; applied at V5 corn stage
Velvetleaf [2] = assay: as above; type: in vivo, Abutilon theophrasti; conditions: Study 9; 30 DAT; topramezone 18.4, pyroxasulfone 90 g ai/ha; applied at V5 corn stage
Yellow Nutsedge [3] = assay: as above; type: in vivo, Cyperus esculentus; conditions: Study 7; 30 DAT; topramezone 18.4, pyroxasulfone 90 g ai/ha; applied at V5 corn stage
Annual Grass = assay: Field test 2011 (Example 1), post emergence weed control in corn; type: in vivo; conditions: Study 2; 30 DAT; topramezone 18.4, pyroxasulfone 90 g ai/ha; applied at V5 corn stage, weeds 4 to 10 inches
Experimental: as §1, §2, §3

Giant Foxtail = assay: Field test 2013 (Example 2), post emergence weed control in corn; type: in vivo, Setaria faberi; conditions: Study 5; 30 DAT; topramezone 18.4, pyroxasulfone 90, atrazine 840 g ai/ha; applied at V5 corn stage
Velvetleaf [4] = assay: Field test 2011 (Example 1), post emergence weed control in corn; type: in vivo, Abutilon theophrasti; conditions: Study 2; 30 DAT; topramezone 18.4, pyroxasulfone 90 g ai/ha; applied at V5 corn stage, weeds 4 to 10 inches
Experimental: as §1, §2, §3

Common Ragweed = assay: Field test 2013 (Example 2), post emergence weed control in corn; type: in vivo, Ambrosia artemisiifolia; conditions: Study 4; 30 DAT; topramezone 18.4, pyroxasulfone 90 g ai/ha; applied at V5 corn stage
Barnyardgrass = assay: as above; type: in vivo, Echinochloa crus-galli; conditions: 30 DAT, topramezone 18.4, pyroxasulfone 90 g ai/ha, applied at V5 corn stage
Palmer Amaranth = assay: as above; type: in vivo, Amaranthus palmeri; conditions: Study 7; 30 DAT; topramezone 18.4, pyroxasulfone 90 g ai/ha; applied at V5 corn stage

SMILES	% Control Fall Panicum (Fall Panicum)	% Control Waterhemp (Waterhemp; Study 3, mesotrione 105, pyroxasulfone 90 g ai/ha)	% Control Ivyleaf Morningglory (Ivyleaf Morningglory)	% Control Giant Ragweed (Giant Ragweed)	% Control Yellow Nutsedge (Yellow Nutsedge [1])	% Control Broadleaf signalgrass (Broadleaf signalgrass)	% Control Foxtail (Foxtail)	% Control Velvetleaf (Velvetleaf [2])	% Control Waterhemp (Waterhemp; Study 6, topramezone 18.4, pyroxasulfone 90 g ai/ha)	% Control Waterhemp (Waterhemp; Study 8, topramezone 18.4, pyroxasulfone 90 g ai/ha)	% Control Yellow Nutsedge (Yellow Nutsedge [3])	% Control Annual Grass (Annual Grass)	% Control Giant Foxtail (Giant Foxtail)	% Control Velvetleaf (Velvetleaf [4])	% Control Common Ragweed (Common Ragweed)	% Control Barnyardgrass (Barnyardgrass; Study 7)	% Control Barnyardgrass (Barnyardgrass; Study 9)	% Control Palmer Amaranth (Palmer Amaranth)
CS(=O)(=O)c1ccc(C(=O)C2C(=O)CCCC2=O)c([N+](=O)[O-])c1 [Mesotrione, 2[4-(methylsulfonyl)-2-nitrobenzoyl]cyclohexane-1,3-dione]	98%	80%	–	–	–	–	–	–	–	–	–	–	–	–	–	–	–	–
Cc1c(C(=O)c2cnn(C)c2O)ccc(S(C)(=O)=O)c1C1=NOCC1 [Topramezone, [3-(4,5-dihydro-1,2-oxazol-3-yl)-4-mesyl-o-tolyl](5-hydroxy-1-methylpyrazol-4-yl)methanone]	–	–	68%	91%	73%	90%	98%	90%	94%	90%	60%	33%	87%	95%	94%	80%	93%	93%
